Experimental findings from patent US11440913B2, “Aminoimidazopyridazines as kinase inhibitors” (BRISTOL-MYERS SQUIBB COMPANY, priority 2017, dated 2022) are described below.

What is called IC50 is the concentration that inhibits the measured activity by half.

Test [1] deals with MLKL phosphorylation in HT29-L23 human colorectal adenocarcinoma cells. As to the kind of experiment: MLKL Phosphorylation High-Content Assay. The format is cell-based. As to conditions: Homo sapiens, 6 h, necroptosis induced with TNFα, SMAC mimetic and Z-VAD, read-out: pMLKL (IC50). The procedure: MLKL Phosphorylation High-Content Assay
HT29-L23 human colorectal adenocarcinoma cells were maintained in RPMI 1640 medium containing 10% heat-inactivated FBS, 1% Pennicilin-Streptomycin and 10 mM HEPES. Cells were seeded at 2,000 cells/well in 384 w tissue culture-treated microplates (Greiner #781090-3B) and incubated at 37° C. (5% CO2/95% O2) for two days. On the day of assay, the cells were treated with test compounds at final concentrations of 6.25 to 0.106 μM for 30 min at 37° C. (5% CO2/95% O2). Necroptopsis was induced using a mixture of human TNFα (35 ng/mL) (Peprotech #300-01A), SMAC mimetic (from US 2015/0322111 A1) (700 nM) and Z-VAD (140 nM) (BD pharmingen #51-6936). Following six hours incubation at 37° C. (5% CO2/95% O2), the cells were fixed with 4% formaldedye (ACROS 11969-0010) for 15 min at room temperature and then permeabilized with phoshpate buffered saline (PBS) containing 0.2% Triton-X-100 for 10 min. MLKL phosporylation was detected using anti-MLKL (phospho S358) antibody (Abcam # ab187091) (1:1000 dilution in Blocking Buffer [PBS supplemented with 0.1% BSA]) with overnight incubation at 4° C. After washing three times in PBS, goat anti-rabbit Alexa-488 (1:1000 dilution) (Life Technologies, A11008) and Hoechst 33342 (Life Technologies, H3570) (1:2000 dilution) in Blocking Buffer were added for 1 h at room temperature. Following another three cycles of washes in PBS, the microplates were sealed, and cellular images were acquired in the Cellomics ArrayScan VTI high-content imager equipped with an X1 camera. Fluorescent images were taken using a 10× objective and the 386-23 BGRFRN_BGRFRN and 485-20 BGRFRN_BGRFRN filter sets, for nuclei and MLKL phosphorylation, respectively. The image sets were analyzed using the Compartmental Analysis Bioapplication software (Cellomics). The level of MLKL phosphorylation was quantified as MEAN_CircRingAvgIntenRatio. […] The IC50 value was defined as the concentration of compound that produces 50% of the maximal inhibition. The data were fitted using the 4-parameter logistic equation to calculate the IC50 and Ymax values.

Test [2] deals with His-GST-TVMV-hRIPK1(1-324) (Homo sapiens (Human), UniProt Q13546). As to the kind of experiment: RIPK1 HTRF Binding Assay. As to conditions: HTRF binding, 1 h at rt; read-out: RIPK1 (IC50). The method, then:
A solution was prepared containing 0.2 nM Anti GST-Tb (Cisbio, 61GSTTLB), 90.6 nM probe and 1 nM His-GST-TVMV-hRIPK1(1-324) in FRET Buffer (20 mM HEPES, 10 mM MgCl2, 0.015% Brij-35, 4 mM DTT, 0.05 mg/mL BSA). Using Formulatrix Tempest, the detection antibody/enzyme/probe solution ([…]) was dispensed into wells of a 1536 plate (Black Low Binding Polystyrene 1536 Plate (Corning, 3724)) containing 10 nL of compounds of interest at appropriate concentration in DMSO. The plate was incubated at rt for 1 h. FRET was measured using the EnVision plate reader (Excitation: 340 nm, Emission: 520 nm/[…]). Total signal (0% inhibition) was calculated from wells containing 10 nL DMSO only.
The coding region of human RIPK1(1-324) flanked by NdeI site at 5′ end and stop codon TGA and XhoI site at 3′ end was codon optimized and gene synthesized at GenScript USA Inc. (Piscataway, N.J.) and subcloned into a modified pFastBacl vector (Invitrogen, Carlsbad, Calif.) with N-terminal His-GST-TVMV tag, to generate His-GST-TVMV-hRIPK1(1-324)-pFB. The fidelity of the synthetic fragment was confirmed by sequencing.

Sequence of His-GST-TVMV-hRIPK1(1-324) (Q13546 1-324): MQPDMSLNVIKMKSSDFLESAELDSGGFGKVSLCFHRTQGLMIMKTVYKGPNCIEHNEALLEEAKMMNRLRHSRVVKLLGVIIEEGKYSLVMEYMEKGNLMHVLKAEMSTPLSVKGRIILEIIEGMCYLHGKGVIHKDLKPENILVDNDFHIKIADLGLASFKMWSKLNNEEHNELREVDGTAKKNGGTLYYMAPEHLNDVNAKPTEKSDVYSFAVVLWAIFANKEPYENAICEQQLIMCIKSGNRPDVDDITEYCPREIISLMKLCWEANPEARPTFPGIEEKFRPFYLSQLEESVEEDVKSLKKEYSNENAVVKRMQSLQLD

In the case of `[2H]C([2H])([2H])Oc1ncc(-c2ccc3nc(NC(C)=O)cn3n2)cc1C(=O)NCc1ccccc1OC(F)(F)F` [Example 14, 5-{2-acetamidoimidazo[1,2-b]pyridazin-6-yl}-2-(D3)methoxy-N-{[2-(trifluoromethoxy)phenyl]methyl}pyridine-3-carboxamide], the IC50 in test [1] came out at 0.069 µM; in test [2] it was 0.033 µM.

For the compound `COc1ncc(-c2ccc3nc(NC(=O)C(C)(C)O)cn3n2)cc1C(=O)NCc1cccc(F)c1OCC1CC1` [Example 15, N-{[2-(cyclopropylmethoxy)-3-fluorophenyl]methyl}-5-[2-(2-hydroxy-2-methylpropanamido)imidazo[1,2-b]pyridazin-6-yl]-2-methoxypyridine-3-carboxamide], the IC50 turned out to be 0.198 µM in test [1] and 0.083 µM in test [2].

`CC(=O)Nc1cn2nc(-c3cc(C(=O)NCc4cc(F)cc(F)c4OCC4CC4)cnc3C)ccc2n1` [Example 16, N-{[2-(cyclopropylmethoxy)-3,5-difluorophenyl]methyl}-5-{2-acetamidoimidazo[1,2-b]pyridazin-6-yl}-6-methylpyridine-3-carboxamide]: the values for the IC50 in test [1] and in test [2] were 0.005 µM and 0.004 µM, respectively.

Turning to `COc1nc(C)c(-c2ccc3nc(NC(C)=O)cn3n2)cc1C(=O)NCc1ccccc1OC(C)CO` (centres unmarked) [Example 17, 5-{2-acetamidoimidazo[1,2-b]pyridazin-6-yl}-N-({2-[(1-hydroxypropan-2-yl)oxy]phenyl}methyl)-2-methoxy-6-methylpyridine-3-carboxamide], the IC50 in test [1] amounted to 0.129 µM; in test [2], 0.027 µM.

Take `CC(=O)Nc1cn2nc(-c3cnc(C(F)(F)F)c(C(=O)NCc4cc(OC(F)(F)F)ccc4F)c3)ccc2n1` [Example 18, 5-{2-acetamidoimidazo[1,2-b]pyridazin-6-yl}-N-{[2-fluoro-5-(trifluoromethoxy)phenyl]methyl}-2-(trifluoromethyl)pyridine-3-carboxamide]: the IC50 came to 0.177 µM in test [1] and 0.145 µM in test [2].

In the case of `COc1nc(C)c(-c2ccc3nc(NC(C)=O)cn3n2)cc1C(=O)NCc1ccccc1OC(F)(F)F` [Example 19, 5-{2-acetamidoimidazo[1,2-b]pyridazin-6-yl}-2-methoxy-6-methyl-N-{[2-(trifluoromethoxy)phenyl]methyl}pyridine-3-carboxamide], the results for the IC50 in test [1] and in test [2] were 0.034 µM and 0.012 µM, respectively.

As to `CC(=O)Nc1cn2nc(-c3cnc(C)c(C(=O)NCc4ccccc4OC(C)C)c3)ccc2n1` [Example 20, 5-{2-acetamidoimidazo[1,2-b]pyridazin-6-yl}-2-methyl-N-{[2-(propan-2-yloxy)phenyl]methyl}pyridine-3-carboxamide], the figures for the IC50 in test [1] and in test [2] were 0.063 µM and 0.046 µM, respectively.

As to `CC(=O)Nc1cn2nc(-c3cncc(C(=O)NCc4ccccc4OC4CCCC4)c3)ccc2n1` [Example 21, N-{[2-(cyclopentyloxy)phenyl]methyl}-5-{2-acetamidoimidazo[1,2-b]pyridazin-6-yl}pyridine-3-carboxamide], the figures for the IC50 in test [1] and in test [2] were 0.029 µM and 0.01 µM, respectively.

Turning to `COc1ncc(-c2ccc3nc(NC(C)=O)cn3n2)cc1C(=O)NCc1ccccc1OCC1CC1` [Example 22, N-{[2-(cyclopropylmethoxy)phenyl]methyl}-5-{2-acetamidoimidazo[1,2-b]pyridazin-6-yl}-2-methoxypyridine-3-carboxamide], the figures for the IC50 in test [1] and in test [2] were 0.026 µM and 0.004 µM, respectively.

For `COc1ncc(-c2ccc3nc(NC(C)=O)cn3n2)cc1C(=O)NCCC(O)c1ccc(Cl)cc1` (centres unmarked) [Example 23, N-[3-(4-chlorophenyl)-3-hydroxypropyl]-5-{2-acetamidoimidazo[1,2-b]pyridazin-6-yl}-2-methoxypyridine-3-carboxamide], the figures for the IC50 in test [1] and in test [2] were 0.127 µM and 0.124 µM, respectively.

On to `CC(CCNC(=O)c1cccc(-c2ccc3nc(NC(=O)c4ccnc(F)c4)cn3n2)c1)c1ccccc1` (centres unmarked) [Example 24, 2-fluoro-N-(6-{3-[(3-phenylbutyl)carbamoyl]phenyl}imidazo[1,2-b]pyridazin-2-yl)pyridine-4-carboxamide], for which the values for the IC50 in test [1] and in test [2] were 0.01 µM and 0.005 µM, respectively.

For `COc1ncc(-c2ccc3nc(NC(C)=O)cn3n2)cc1C(=O)NCCC(C)c1ccccc1` (centres unmarked) [Example 25, 5-{2-acetamidoimidazo[1,2-b]pyridazin-6-yl}-2-methoxy-N-(3-phenylbutyl)pyridine-3-carboxamide], the figures for the IC50 in test [1] and in test [2] were 0.009 µM and 0.002 µM, respectively.

Turning to `Cc1ncc(-c2ccc3nc(NC(=O)C(C)(C)C#N)cn3n2)cc1C(=O)NCc1ccccc1Sc1ccccc1CO` [Example 26, 5-[2-(2-cyano-2,2-dimethylacetamido)imidazo[1,2-b]pyridazin-6-yl]-N-[(2-{[2-(hydroxymethyl)phenyl]sulfanyl}phenyl)methyl]-2-methylpyridine-3-carboxamide], the figures for the IC50 in test [1] and in test [2] were 0.192 µM and 0.025 µM, respectively.

Take `Cc1ncc(-c2ccc3nc(NC(=O)C(C)(C)C#N)cn3n2)cc1C(=O)N[C@H](C)c1cc(OC(F)(F)F)ccc1F` [Example 27, 5-[2-(2-cyano-2,2-dimethylacetamido)imidazo[1,2-b]pyridazin-6-yl]-N-[(1R)-1-[2-fluoro-5-(trifluoromethoxy)phenyl]ethyl]-2-methylpyridine-3-carboxamide]: the IC50 in test [1] stood at 0.108 µM; in test [2] it was 0.109 µM.

As for `COc1ncc(-c2ccc3nc(NC(=O)C(C)(C)C#N)cn3n2)cc1C(=O)NCc1cc(OC(F)(F)F)ccc1F` [Example 28, 5-[2-(2-cyano-2,2-dimethylacetamido)imidazo[1,2-b]pyridazin-6-yl]-N-{[2-fluoro-5-(trifluoromethoxy)phenyl]methyl}-2-methoxypyridine-3-carboxamide], the IC50 in test [1] stood at 0.248 µM; in test [2], 0.285 µM.

In the case of `COc1ncc(-c2ccc3nc(NC(=O)C(C)(C)C#N)cn3n2)cc1C(=O)NCc1cc(OCC2CC2)ccc1F` [Example 29, 5-[2-(2-cyano-2,2-dimethylacetamido)imidazo[1,2-b]pyridazin-6-yl]-N-{[5-(cyclopropylmethoxy)-2-fluorophenyl]methyl}-2-methoxypyridine-3-carboxamide], the half-inhibitory concentration (IC50) in test [1] amounted to 0.45 µM; in test [2], 0.257 µM.

On to `CC(=O)Nc1cn2nc(-c3cnc(C(F)(F)F)c(C(=O)NCc4cc(C(F)(F)F)ccc4F)c3)ccc2n1` [Example 30, 5-{2-acetamidoimidazo[1,2-b]pyridazin-6-yl}-N-{[2-fluoro-5-(trifluoromethyl)phenyl]methyl}-2-(trifluoromethyl)pyridine-3-carboxamide], for which the half-maximal inhibitory concentration (IC50) in test [1] worked out at 0.341 µM; in test [2] it was 0.199 µM.

For `CC(=O)Nc1cn2nc(-c3cnc(C(F)(F)F)c(C(=O)NCc4c(F)ccc(F)c4OCC4CC4)c3)ccc2n1` [Example 31, N-{[2-(cyclopropylmethoxy)-3,6-difluorophenyl]methyl}-5-{2-acetamidoimidazo[1,2-b]pyridazin-6-yl}-2-(trifluoromethyl)pyridine-3-carboxamide], the IC50 stood at 0.339 µM in test [1] and 0.082 µM in test [2].

For the compound `COc1ncc(-c2ccc3nc(NC(=O)CC#N)cn3n2)cc1C(=O)NCc1ccccc1OC(F)(F)F` [Example 32, 5-[2-(2-cyanoacetamido)imidazo[1,2-b]pyridazin-6-yl]-2-methoxy-N-{[2-(trifluoromethoxy)phenyl]methyl}pyridine-3-carboxamide], the IC50 came to 0.177 µM in test [1] and 0.078 µM in test [2].
